Assay results from publication PMC9973354 (mBio, 2022).
Starred links: 1 amine or outer side, 2 acyl side, 3 side chain; linkers in the order of their positions; H or OH if unused. Positions of bridges follow the written chain, without caps; N, C: chain ends. Non-standard residues stand in square brackets, D forms with d. Residues, ends and D or L forms follow the SMILES beside them. ξ: configuration not given here. X1 = O=C([C@@H]1CCN=C2C(N[*:1])=Cc3cc(O)c(O)cc3N21)[*:2]; ξOrn(N(OH)CHO) = NC(CCCN(O)C=O)C(=O)O; Suc = O=C(CCC(=O)[*:2])[*:1]; ξK = NCCCCC(N)C(=O)O; ξS = NC(CO)C(=O)O

Legend:
Format in all cases: cell-based, Pseudomonas aeruginosa
[1] = system: PA14; assay: Growth curves with DSX and siderophores, WT PA14; details: 20 h
Protocol: Supplementary file : FIG S1 (A) FpvB is expressed in WT PA14 and the ΔfpvA mutant grown in 10:90. PilF was used as a loading control for outer membrane proteins. (B) FpvA is expressed from WT PA14 grown in 10:90. […] PilF was used as a loading control for outer membrane proteins. (C) Growth curves of PA14 and mutants with DSX and different siderophores in 10:90. PA14, ΔfpvA, ΔfpvB, ΔfpvA ΔfpvB, and ΔpvdA ΔpchA strain growth. Blue indicates control, purple indicates treatment with 64 μg/mL DSX, yellow indicates treatment with 10 μg/mL pyoverdine (PA14), and red indicates treatment with 64 μg/mL DSX and 10 μg/mL pyoverdine (PA14). (D) ΔfpvA, ΔfpvA ΔfpvB, and ΔpvdA ΔpchA strain growth. Blue indicates control, purple indicates treatment with 64 μg/mL DSX, grey indicates treatment with 10 μg/mL ferrichrome, and red indicates treatment with 64 μg/mL DSX and 10 μg/mL ferrichrome. (E) ΔfpvA, ΔfpvA ΔfpvB, and ΔpvdA ΔpchA strain growth. […] Download FIG S1, EPS file, 8.5 MB.
Another explanation for the susceptibility of the ΔfpvA mutant to DSX is that the mutant produces less pyoverdine compared to WT cells due to loss of the signaling cascade that controls siderophore production in response to its binding to FpvA ([25]). To differentiate whether the fpvA mutant was susceptible to DSX because of reduced pyoverdine production or because FpvB was a poor pyoverdine transporter, we treated the WT, ΔfpvA, ΔfpvB, and ΔfpvA ΔfpvB strains with DSX (64 μg/mL) without and with exogenous pyoverdine (10 μg/mL) for 20 h (Fig. 1; see also Fig. S1C). Growth of the ΔfpvA mutant should be restored if there are functional pyoverdine transporters. […] The growth of the ΔfpvA ΔfpvB mutant was inhibited by DSX and pyoverdine, confirming previously published results ([18]).

[2] = system: PA14 ΔfpvA ΔfpvB pHERD20T-fpvA; assay: Checkerboard assay TS and siderophores, FpvA expressed; details: 10:90 + 2% arabinose
Source text: (§1) We investigated this hypothesis by treating the ΔfpvA ΔfpvB mutant complemented with fpvA or fpvB with TS and pyoverdine-Fe^3+. If pyoverdine competes with TS for the same binding site in the transporter, a reduction in TS susceptibility would be expected, as competition would decrease entry of the antibiotic into the cell. TS susceptibility decreased >8-fold with increasing concentrations of pyoverdine-Fe^3+ when FpvA was expressed (see Fig. S2A in the supplemental material).
(§2) Supplementary file : FIG S2 Checkerboard assays of the PA14 ΔfpvA ΔfpvB strain complemented with fpvA and fpvB in trans with TS and siderophores. […] Checkerboards of the PA14 ΔfpvA ΔfpvB pHERD20T-fpvB strain with TS and enterobactin (G), ferrioxamine E (H), and arthrobactin (I). Results are averaged from three independent biological replicates. Cells in the assay were grown in 10:90 + 2% arabinose. Download FIG S2, EPS file, 2.2 MB.
Checkerboards (8 rows by 8 columns) were conducted as previously described in a 96-well plate (Nunc) ([13], [14]). TS at 75× the final concentration dissolved in DMSO was added in columns from bottom to top in increasing concentrations. Siderophores at 75× the final concentration dissolved in DSMO were added from in rows from left to right in increasing concentrations. Four columns were used for vehicle controls (DMSO) and sterile controls. […] Plates were sealed to prevent evaporation and incubated at 37°C overnight in a shaking incubator (200 rpm). The next day, the OD600 was determined with a plate reader (Thermo Scientific) and normalized to percent of growth of the vehicle control (DMSO) after subtracting the OD600 from blank media.

[3] = system: PA14 ΔfpvA ΔfpvB pHERD20T-fpvB; assay: Checkerboard assay TS and siderophores, FpvB expressed; details: 10:90 + 2% arabinose
Source text: as §1, §2
Checkerboards (8 rows by 8 columns) were conducted as previously described in a 96-well plate (Nunc) ([13], [14]). TS at 75× the final concentration dissolved in DMSO was added in columns from bottom to top in increasing concentrations. […] The next day, the OD600 was determined with a plate reader (Thermo Scientific) and normalized to percent of growth of the vehicle control (DMSO) after subtracting the OD600 from blank media.

[4] = system: PA14 ΔfpvA ΔfpvB ΔfiuA ΔfoxA quadruple mutant; assay: Growth phenotypes of deletion mutants, quadruple mutant; details: 64 μg/mL DSX, 10 μg/mL siderophores, 10:90
Source text: PA14, ΔfpvA, ΔfpvB, and ΔfpvA ΔfpvB strains treated with TS (A) and DSX (B) in 10:90. Green indicates growth, and white indicates no growth. Growth is expressed as percent of control. The PA14 ΔfpvA ΔfpvB strain complemented with pHERD20T, fpvA, or fpvB treated with TS (C) and DSX (D) in 10:90. […] All experiments are averaged from three independent biological replicates. Blue indicates growth and white indicates no growth. (H) Summary of growth phenotypes of WT PA14 and combinations of single, double, triple, and quadruple deletion mutants in fpvA, fpvB, fiuA, and foxA. […] Green indicates growth, whereas no growth is indicated in white. […] Representative plates are shown.
If there were no transporters for a particular siderophore, the mutant would fail to grow due to iron restriction.

[5] = system: PA14 ΔfpvA ΔfpvB ΔfiuA ΔfoxA pHERD20T-fpvB D219A; assay: Growth of quadruple mutant expressing FpvB D219A; details: 10:90 + 2% arabinose
Protocol: (§3) Site-directed mutagenesis was used to confirm the docking predictions and to define the molecular determinants for ligand uptake through FpvB (Fig. 4C). We generated 17 single amino acid substitutions in FpvB and expressed each of them in trans in the quadruple ΔfpvA ΔfpvB ΔfiuA ΔfoxA mutant. Their ability to complement growth of the mutant in the presence of ferrichrome and ferrioxamine B and to restore TS susceptibility was assessed. […] The mutant transporters were tagged with a C-terminal FLAG tag to evaluate expression levels. FLAG-tagged FpvB mutants had WT levels of expression except for Y216T and W347V, which were expressed at 140% and 25% of WT, respectively.
(§4) The ΔfpvA ΔfpvB ΔfiuA ΔfoxA mutant was complemented with WT fpvA, fpvB, fiuA, and foxA in trans as controls (Fig. 4E).
(§5) MIC assays were conducted as previously described ([13], [14]). Overnight cultures were grown in LB from a glycerol stock at 37°C with shaking (200 rpm). Subcultures in 10:90 (1:100 dilution) were cultured for 4 h. Cells were adjusted to an optical density at 600 nm (OD600) of 0.1/500 in 10:90. All compounds were serially diluted 2-fold in dimethyl sulfoxide (DMSO) or H2O at 75× the final concentration. […] The next day, the OD600 was determined with a plate reader (Thermo Scientific) and normalized to percent of growth of the vehicle control after subtracting the OD600 from blank media.

[6] = system: PA14 ΔfpvA ΔfpvB ΔfiuA ΔfoxA pHERD20T-fpvB W347V; assay: Growth of quadruple mutant expressing FpvB W347V; details: FpvB W347V (expressed at 25% of WT), 10:90 + 2% arabinose
Protocol: as §3, §4, §5

[7] = system: PA14 ΔfpvA ΔfpvB ΔfiuA ΔfoxA pHERD20T-fpvB Y432A; assay: Growth of quadruple mutant expressing FpvB Y432A; details: 10:90 + 2% arabinose
Protocol: as §3, §4, §5

`NCCCCC(NC(=O)C(CO)NC(=O)[C@@H]1CCN=C2C(NC(=O)CCC(=O)O)=Cc3cc(O)c(O)cc3N21)C(=O)NCC(=O)NC(CCCN(O)C=O)C(=O)NC1CCCCNC(=O)C(CO)NC(=O)C(CCCN(O)C=O)NC1=O` (some centres unmarked) [pyoverdine] (Suc-[X1][ξS][ξK]G[ξOrn(N(OH)CHO)][ξK][ξOrn(N(OH)CHO)][ξS]; lactam 6-C) was tested, and the “growth with siderophore in the presence of DSX” value ([1]; 64 μg/mL DSX + 10 μg/mL pyoverdine) was “increased growth” and the growth versus control ([1]; DSX 64 μg/mL or pyoverdine 10 μg/mL alone, 10:90) was “increased growth”.
For `CC(=O)N(O)CCCCCNC(=O)CCC(=O)N(O)CCCCCNC(=O)CCC(=O)N(O)CCCCCN` [ferrioxamine B], the “effect of siderophore on TS susceptibility” value [2] was “None of those siderophores reduced TS susceptibility”, the “effect of siderophore on TS susceptibility” value [3] was “antagonized TS susceptibility” and the “growth in the presence of compound” value [4] was “failed to grow”. For the same molecule, the “growth in the presence of siderophore” value [5] was “prevented growth”, the “growth in the presence of siderophore” value [6] was “prevented growth” and the “growth in the presence of siderophore” value [7] was “prevented growth”.
